# Assay results from US10562839B2, “Medium chain fatty acid esters of β-hydroxybutyrate and butanediol and compositions and methods for using same” (The J. David Gladstone Institutes, priority 2016, dated 2020).
# Columns and labels:
# [1] = Plasma BHB levels after intraperitoneal injection of C6 and C8 esters; type: in vivo, wild-type C57BL/6 male mice; conditions: for blood BHB levels: intraperitoneal injection, 50 uL and 100 uL (approx. 1-3 g/kg), blood up to 6 hours after injection
# Description: C6 and C8 esters of butanediol and C6 and C8 esters of β-hydroxybutyrate were synthesized as described above and purified for testing in wild-type C57BL/6Ncrl male mice obtained from Charles River Laboratories. Mice were 8 months old at the time of the experiment. The biological function of C6 and C8 esters of butanediol and β-hydroxybutyrate was tested by intraperitoneal injection at two doses each, 50 uL and 100 uL. Injection was performed approximately 9 am (mice are maintained on 7a-7p light-dark cycle) and mice had access to food and water at all times. The molar quantity injected varied from 0.13-0.41 millimoles depending on the compound and dose. The subject mice weighed approximately 30 grams, so the quantity of compound injected ranged approximately from 1 g/kg to 3 g/kg. For comparison, these amounts could theoretically supply about 1/20 of a mouse's daily caloric needs—equivalent in humans to around 100 calories. Blood was drawn by distal tail nick just prior to injection (baseline) and at 30 min, 1 hour, 2 hours, 4 hours, and 6 hours after injection. Approximately 40 uL of blood was collected into lithium-heparin microvettes (Sarstedt CB-300LH) and subsequently centrifuged 15 min at 1500×G at 4° C. to separate plasma. Plasma BHB levels were determined by a colorimetric enzymatic assay (Stanbio Laboratory 2440-058).
# [2] = Pilot feeding study, food supplemented with esters of β-hydroxybutyrate and butanediol; type: in vivo, C57BL/6 male mice; conditions: 10% w/w in chow
# Excerpt: Different esters of β-hydroxybutyrate and butanediol were synthesized as described above and purified for testing in mice. The esters of β-hydroxybutyrate and butanediol that were supplemented into the diet of the mice in this study were as follows: 1) C8 diesters of butanediol (C8x2-BD); 2) C8 monoesters of β-hydroxybutyrate (C8-BHB); 3) C6 diesters of β-hydroxybutyrate (C6x2-BHB); 4) C6 monoesters of β-hydroxybutyrate (C6-BHB); and 5) C6 diesters of butanediol (C6x2-BD). Food compositions supplemented with 1,3-butanediol were also tested. Compounds were mixed at 10% w/w in ground normal chow (20% calories from protein) to match standard vivarium feed. The food was provided in a glass jar inside the animal cage. n=2 mice/condition, 18 mice total. All mice were 12 month-old C57BL/6 males. Mice were placed in individual cages to record food intake more precisely. Food was switched back to normal chow at 72 hrs (ground and in a glass jar).
# [3] = Feeding study, food supplemented with C6 diesters of β-hydroxybutyrate; type: in vivo, C57BL/6 male mice; conditions: 10% w/w in diet, eighth night
# Excerpt: Based on the results of the above Pilot studies, the C6 diesters of β-hydroxybutyrate were selected for a longer study with a greater number of mice to see if it would remain ketogenic even after food intake normalized. C6 diesters of β-hydroxybutyrate were synthesized as described above and purified for testing in mice. The C6 diesters of β-hydroxybutyrate were mixed at 10% w/w into ground standard chow diet (20% calories from protein), which was re-formed into pellets. Re-pelleted food was used to minimize any variable effects from a change in diet texture to ground.
# The pelleted food was consumed by the mice after being placed in a glass jar in the animal cage. Four mice per diet were tested, with the mice individually caged. All mice were 12 month-old C57BL/6 males. Daily weight and caloric intake was monitored and blood was drawn for glucose and β-hydroxybutyrate levels on the eighth night. […] By the 7th night, the weights of the mice stabilized and 24 hour caloric intake was similar between the control diet and the mice that consumed food supplemented with C6 esters of β-hydroxybutyrate.
# [4] = system: APPJ20 mice; experiment: EEG epileptiform spikes before and after intraperitoneal injection of C6-BHB; type: in vivo
# Description: C6 and C8 esters of butanediol and C6 and C8 esters of β-hydroxybutyrate were synthesized as described above. The C6 ester of β-hydroxybutyrate was tested for efficacy in suppressing spikes in APPJ20 mice by intraperitoneal injection into 1-2 year-old APPJ20 mice including both male and female mice. The APPJ20 mice were described in Example 5.
# (§1) EEGs were recorded from APPJ20 mice before and after intraperitoneal injection of C6-BHB, or an equivalent volume of saline. Following completion of the first 50 min recording, the injection was performed. Mice were then allowed to recover for 20 minutes in their home cage, followed by the second 50 min EEG recording. Blood was drawn immediately following completion of the second EEG session in order to measure plasma BHB levels (as described in Example 4). The lower of the two previously tested doses from Example 4 was injected, 50 μL per 30 g body weight, which is approximately 1.5 g/kg and approximately 0.2 millimoles.
# (§2) During the EEG recordings, mice were freely moving in a transparent cylinder approximately the size of a home cage. Methodology for recording and analysis of EEGs and video tracking for movement was described in Example 5. Methodology for blood draws and plasma BHB measurement was described in Example 4.
# The study used a cross-over design where all mice were injected with both C6-BHB and normal saline on different days, with at least 48 hours between injections. Data analysis was limited to mice that completed all injections and EEG recordings.
# [5] = Plasma BHB after intraperitoneal injection in APPJ20 mice; type: in vivo; conditions: approximately 70-80 minutes after i.p. injection; from a median of approximately 200 μM
# Description: as §1, §2
# [6] = Pilot feeding study, food supplemented with C6 monoester of β-hydroxybutyrate; type: in vivo, C57BL/6 male mice
# Description: C6 monoester of β-hydroxybutyrate was synthesized as described above and purified for testing in mice. The C6 monoester of β-hydroxybutyrate was mixed into ground control food (10% calories from protein), the same control diet used in the above examples involving ketogenic and control diet. The food was placed in a glass jar inside the animal cage at the start of the nighttime feeding cycle, 19:00 h. Different concentrations of the C6 monoester of β-hydroxybutyrate (w/w) were mixed into the control diet to determine which concentration was sufficient to raise BHB levels in the mice. n=4 mice/condition (2 mice per cage). All mice were 12 month-old C57BL/6 males.
smiles,measurement,setting,value
CCCCCCCC(=O)O[C@H](C)CC(=O)OCC [C8-BHB],blood BHB levels,[1],"increased BHB levels to that seen on a ketogenic diet (0.5-2 mM), or after an overnight fast (1-3 mM)"
same,hypoglycaemias,[2],can be explained by fasting
same,blood concentration of β-hydroxybutyrate,[2]; targeted 500 μM threshold,high BHB value
"CCCCCC(=O)OCC [C6, reference compound]",hypoglycaemias,[2],can be explained by fasting
CCCCCCOC(=O)C[C@@H](C)OC(=O)CCCCC [C6x2-BHB],plasma β-hydroxybutyrate against targeted threshold,[3],≥ 500 µM
same,β-hydroxybutyrate plasma concentrations versus control diet,[3]; normal caloric intake,greater β-hydroxybutyrate plasma concentrations
CCCCCC(=O)O[C@H](C)CC(=O)OCC [C6-BHB],epileptiform spikes,"[4]; after i.p. 50 μL per 30 g body weight, saline 1.25 spikes/min",0.82 spikes/min
same,reduction of epileptiform spikes compared to saline injection,"[4]; i.p. 50 μL per 30 g body weight (approx. 1.5 g/kg), 50 min EEG",approximately 35%
same,epileptiform spikes after injection,"[4]; i.p. injection, 50 min EEG",reduces spikes compared to both pre-injection baselines and injection of saline
same,"spike reduction compared to after saline, at the individual mouse level","[4]; i.p. injection, P<0.05",significant reductions for most mice
same,"plasma BHB levels, median",[5],approximately 600 μM
same,side effect observed,"[1]; higher dose (100 uL), intraperitoneal",mild sedation
same,blood BHB levels,[1],"increased BHB levels to that seen on a ketogenic diet (0.5-2 mM), or after an overnight fast (1-3 mM)"
same,BHB level in the blood,[6]; 2.5% or 5% by weight in food,slight increase in BHB level in the blood
same,BHB level in the blood against the targeted threshold,[6]; 2.5% or 5% by weight in food,≤ 500
same,β-hydroxybutyrate concentration in blood,"[6]; 10% or 20% by weight in food, probably explained by fasting",greater increase in β-hydroxybutyrate concentration
same,hypoglycaemias,[2],likely a result of the compound
